Source: patent US5075289A, “9-R-azacyclic erythromycin antibiotics” (priority 1988, dated 1991)
Converted amounts (≈) assume the structure as drawn.

Experiments:
Experiment in all cases: In vitro antibacterial activity, agar dilution MIC
Type in all cases: cell-based
[1] = system: Haemophilus influenzae 1177; conditions: H. influenzae 1177
Experimental: (§1) The antimicrobial spectra of a number of compounds of the invention were tested by the following method:
(§2) Twelve petri dishes containing successive aqueous dilutions of the test compound mixed with 10 ml of sterilized Brain Heart Infusion agar (Difco 0418-01-5) are prepared. Each plate is inoculated with 1:100 (or 1:10 for slow growing strains, primarily Micrococcus and Streptococcus) dilutions of up to 32 different microorganisms, using a Steers replicator block The inoculated plates are incubated at 35°-37° C. for 20-24 hours. In addition, a control plate, using BHI agar containing no test compound, is prepared and incubated at the beginning and end of each test.
(§3) An additional plate containing a compound having known susceptibility patterns for the organisms being tested and belonging to the same antibiotic class as the test compound is also prepared and incubated as a further control, as well as to provide test-to-test comparability. Erythromycin A was used for this purpose.
(§4) After incubation, each disk is read. The MIC is defined as the lowest concentration of drug yielding no growth, a slight haze, or sparsely isolated colonies on the inoculum spot as compared to the growth control.

[2] = system: Haemophilus influenzae 1435; conditions: H. influenzae 1435
Experimental: as §1, §2, §3, §4

[3] = system: Haemophilus influenzae 503B; conditions: H. influenzae 503B
Experimental: as §1, §2, §3, §4

[4] = system: Haemophilus influenzae 504; conditions: H. influenzae 504
Experimental: as §1, §2, §3, §4

[5] = system: Haemophilus influenzae 519A; conditions: H. influenzae 519A
Experimental: as §1, §2, §3, §4

[6] = system: Haemophilus influenzae 566A; conditions: H. influenzae 566A
Experimental: as §1, §2, §3, §4

[7] = system: Haemophilus influenzae 588A; conditions: H. influenzae 588A
Experimental: as §1, §2, §3, §4

[8] = system: Haemophilus influenzae 632A; conditions: H. influenzae 632A
Experimental: as §1, §2, §3, §4

[9] = system: Haemophilus influenzae 667A; conditions: H. influenzae 667A
Experimental: as §1, §2, §3, §4

[10] = system: Haemophilus influenzae 747C; conditions: H. influenzae 747C
Experimental: as §1, §2, §3, §4

[11] = system: Haemophilus influenzae 751; conditions: H. influenzae 751
Experimental: as §1, §2, §3, §4

[12] = system: Haemophilus influenzae ATCC 10211; conditions: ATCC10211, H. influenzae ATCC 10211
Experimental: as §1, §2, §3, §4

[13] = system: Haemophilus influenzae ATCC 19418; conditions: ATCC19418, H. influenzae ATCC 19418
Experimental: as §1, §2, §3, §4

[14] = system: Haemophilus influenzae ATCC 9795; conditions: ATCC9795, H. influenzae ATCC 9795
Experimental: as §1, §2, §3, §4

[15] = system: Haemophilus influenzae DILL AMP R; conditions: H. influenzae DILL AMP R
Experimental: as §1, §2, §3, §4

[16] = system: Haemophilus influenzae SOL AMP R; conditions: H. influenzae SOL AMP R
Experimental: as §1, §2, §3, §4

[17] = system: Haemophilus influenzae SPK AMP R; conditions: H. influenzae SPK AMP R
Experimental: as §1, §2, §3, §4

SMILES | MIC [1] [µg/mL] | MIC [2] [µg/mL] | MIC [3] [µg/mL] | MIC [4] [µg/mL] | MIC [5] [µg/mL] | MIC [6] [µg/mL] | MIC [7] [µg/mL] | MIC [8] [µg/mL] | MIC [9] [µg/mL] | MIC [10] [µg/mL] | MIC [11] [µg/mL] | MIC [12] [µg/mL] | MIC [13] [µg/mL] | MIC [14] [µg/mL] | MIC [15] [µg/mL] | MIC [16] [µg/mL] | MIC [17] [µg/mL]
CC[C@H]1OC(=O)[C@H](C)[C@@H](O[C@H]2C[C@@](C)(OC)[C@@H](O)[C@H](C)O2)[C@H](C)[C@@H](O[C@@H]2O[C@H](C)C[C@H](N(C)C)[C@H]2O)[C@](C)(O)C[C@@H](C)[C@@H](N2CCC(OC)(OC)CC2)[C@H](C)[C@@H](O)[C@]1(C)O [Example 27] | 0.06 (≈ 0.0695 µM) | 0.25 (≈ 0.29 µM) | 1 (≈ 1.16 µM) | 1 (≈ 1.16 µM) | 0.25 (≈ 0.29 µM) | 1 (≈ 1.16 µM) | 1 (≈ 1.16 µM) | 1 (≈ 1.16 µM) | 1 (≈ 1.16 µM) | 1 (≈ 1.16 µM) | 2 (≈ 2.32 µM) | 0.5 (≈ 0.579 µM) | 1 (≈ 1.16 µM) | 1 (≈ 1.16 µM) | 0.5 (≈ 0.579 µM) | 1 (≈ 1.16 µM) | 1 (≈ 1.16 µM)
CC[C@H]1OC(=O)[C@H](C)[C@@H](O[C@H]2C[C@@](C)(OC)[C@@H](O)[C@H](C)O2)[C@H](C)[C@@H](O[C@@H]2O[C@H](C)C[C@H](N(C)C)[C@H]2O)[C@](C)(O)C[C@@H](C)[C@@H](N2CCC(=O)CC2)[C@H](C)[C@@H](O)[C@]1(C)O [Example 28] | 0.25 (≈ 0.306 µM) | 0.25 (≈ 0.306 µM) | 0.25 (≈ 0.306 µM) | 1 (≈ 1.22 µM) | 0.25 (≈ 0.306 µM) | 2 (≈ 2.45 µM) | 1 (≈ 1.22 µM) | 2 (≈ 2.45 µM) | 1 (≈ 1.22 µM) | 0.5 (≈ 0.612 µM) | 2 (≈ 2.45 µM) | 5 (≈ 6.12 µM) | 1 (≈ 1.22 µM) | 1 (≈ 1.22 µM) | 0.5 (≈ 0.612 µM) | 0.5 (≈ 0.612 µM) | 0.5 (≈ 0.612 µM)
